Assay results as given in patent publication US6635802B1, “Nuclear transfer using cells cultured in serum starvation media containing apoptosis inhibitors” (The Texas A&M University System, priority 2000, dated 2003).

Columns and labels:
Type in all cases: cell-based
porcine PGCs [1] = assay: Porcine PGCs plated in chambered slides in the absence of feeder layers, with or without growth factors; AP-positive cells counted; details: for Number of PGCs surviving in culture, in words: absence of feeder layers, 24, 48, 72 hours
Protocol: FIG. 8. Freshly isolated PGCs were plated in chambered slides in the absence of feeder cells and incubated in media with no protease inhibitors or antioxidants (PES), with MAC (MAC) or with NAC (NAC), either with or without growth factors (G), for 24, 48 or 72 hours. Cells were fixed, stained for alkaline phosphatase (AP) as previously described, and counted (normalized to control; left vertical axis).
After culture, colonies were stained, counted and analyzed as described above. To determine the effects of MAC and NAC on porcine PGCs, cells were exposed to those inhibitors during the first half period of culture (4-5 days) or the last half period (4-5 days), respectively. In addition, to determine the effect of MAC and NAC in the absence of feeders, cells were plated on chambered slides previously coated with 0.1% gelatin and medium with or without inhibitors in the presence or absence of growth factors. Cells were fixed, stained for AP and counted at the interval of 24, 48, and 72 hours.
Freshly isolated PGCs were plated in chambered slides in the absence of feeders and incubated in media with or without growth factors (GF) and with or without MAC and NAC. Cells were fixed, stained for AP as previously described, and counted.

[2] = tested on: Bovine embryonic fibroblasts (BEF); assay: Cell cycle distribution (propidium iodide flow cytometry) of serum starved bovine embryonic fibroblasts; details: for Proportion of cells going into G0, in words: addition during the starvation period; for G2/M (%) / S (%): serum starvation 5 days; for G2/M (%) / S (%) / G0/G1 (%): MAC 0.7 pM, NAC 1 mM, GSH 2 mM; for G0/G1 (%): serum starvation (0.5% FBS) 5 days
Protocol: Bovine embryonic fibroblasts (BEF) were isolated from the fetus with 3-5 cm crown-rump length. After two or three passages, cells were plated one million cells per plate (100 mm) with growth medium (DMEM) with 2 mM L-glutamine, 0.1 mM β-mercaptoethanol and 10% FBS. After 24 hours, cells were washed with PBS 3-5 times and then serum starvation medium with 0.5% FBS was added. In addition, cells were treated with serum starvation medium containing apoptosis inhibitors such as a2-macroglobulin (0.7 pM), N-acetylcysteine (1 mM) and glutathione (2 mM). Cells were treated with serum starvation with or without apoptosis inhibitors for 5 or 10 days. Then cells were trypsinized and counted.
Cells (1×10^6) were washed in 0.15 M NaCI, fixed in 70% ethanol, and stored at −20° C. overnight or until ready to be analyzed. For analysis, cells were centrifuged, rinsed with PBS, resuspended in 500 μl of a 0.05 mg/ml propidium iodide/0.1% Triton X-100/0.2 mg/ml RNase A solution, and incubated for a minimum of 30 minutes at room temperature in the dark. Cells were analyzed by flow cytometry to determine DNA content. Modfit LT™ (Verity Software House, Topsham, Me.) was used to model the cell cycle distribution within each sample.

porcine PGCs [3] = assay: In vitro culture of porcine PGCs on STO feeder cells with apoptosis inhibitors; AP-stained colonies counted; details: for Effect of timing of exposure on number of colonies, in words: all 8 days vs first 4 days vs last 4 days
Description: Porcine fetuses were collected from hysterectomized uteri of four-way crossbred gilts (DeKalb, Ill.) between day 25 and 30 of pregnancy (estrus=day 0). Fetuses were washed in phosphate buffered saline supplemented with BSA (0.4%, Sigma St. Louis, Mo.) and penicillin/streptomycin (1%, Gibco BRL, Rockville, Md.) (PBS/BSA/PS). Urogenital ridges, appeared as longitudinal protrusions along the medial mesonephric surface, were isolated and washed in PBS/BSA/PS followed by several washes in PES medium before PGC collection. The PES medium was comprised of 50:50 mixture of Dulbecco's modified Eagle's medium (DMEM) and Ham's F10 medium supplemented with 15% fetal bovine serum (FBS), L-glutamine (2 mM), β-mercaptoethanol (0.1 mM), MEM non-essential amino acids (1%) and penicillin/streptomycin (1%). All media and supplements were purchased from Gibco BRL.
PGCs were isolated by incubation in 0.25% trypsin/1 mM EDTA solution (Gibco BRL) followed by gentle pipetting or by mechanical dissociation of ridges into small fragments followed by gentle pipetting. After tissue disruption, cells were centrifuged for 5 minutes at 250 rpm to remove tissue debris and clumps. The supernatant containing most the single cells was collected and centrifuged at 1000 rpm for 10 minutes.
PGCs were resuspended with PES medium containing cytokines, such as soluble recombinant human stem cell factor (SCF; 40 ng/ml), human basic fibroblast growth factor (bFGF; 20 ng/ml), and human leukemia inhibitory factor (LIF; 20 ng/ml). All cytokines were obtained from R&D Systems (Minneapolis, Minn.). Cell suspensions were plated on irradiated mouse STO feeder cells (3×10^6 cells per 35 mm well), prepared as previously described (Piedrahita et al., 1998) and cultured in humidified environment of 5% CO2 in air, 38° C. PGC-derived colonies with ES-like morphology after 7-10 days of culture are passaged to fresh feeders for establishment of cell lines. PGC-derived colonies were dissociated with 0.25% trypsin/1 mM EDTA (Gibco BRL) for 10 minutes. […] To identify PGC-derived cells and the state of differentiation were determined by morphology and by expression of alkaline phosphatase (AP).
AP activity was determined as described previously (Moore and Piedrahita, 1997). Briefly, culture plates were rinsed twice in PBS and fixed in 4% formaldehyde in PBS for 15 minutes at room temperature. Fixed cells were washed twice with PBS and stained in naphtol AS-MX phosphate (200 μg/ml; Sigma) and Fast Red TR salt (1 mg/ml; Sigma) in 100 mM Tris buffer, pH 8.2 for 30 minutes at room temperature. Staining was terminated by washing cultures in PBS. Specificity of AP activity was determined by staining in the presence of the AP inhibitor, tetramisole (500 μM; Sigma). Mouse ES cells also were stained as control for AP activity.
To determine the effect of apoptosis inhibitors on survival of porcine PGCs in vitro, freshly isolated PGCs were cultured as described above with or without apoptosis inhibitors, α2-macroglobulin (MAC: broad range protease inhibitor, 1.4 pM) and N-acetylcysteine (NAC: antioxidant, 1 mM). After 7-10 days of culture, colonies were stained for AP activity and counted. Studies were performed at least three replicates. The data were normalized to the treatment with no inhibitors added (control) and tested for homogeneity of variance and analyzed by ANOVA. Mean separation is accomplished by Fisher's protected LSD using software SuperANOVA (Abacus Concepts).
Dose titration of MAC (0.35, 0.7, 1.4, and 2.8 pM) and NAC (0.25, 0.5, 1.0, and 2.0 mM), to determine the optimal concentration of inhibitors, were performed.

CC(=O)N[C@@H](CS)C(=O)O [NAC, N-acetylcysteine]
Rescue of PGCs, in words (porcine PGCs [1]; absence of feeder layers and of growth factors, after 72 hr of culture): able to rescue the PGCs
Number of PGCs surviving in culture, in words (porcine PGCs [1]): increased the number of PGCs surviving in culture
Proportion of cells going into G0, in words [2]: did not affect the proportion of cells going into G0
G2/M (%) [2]: 10%
S (%) [2]: 2%
G0/G1 (%) [2]: 88%
Normalized # of Colonies + SE (porcine PGCs [3]; 0.25 mM NAC, normalized to control, Table 2 dose response): 1.23 ± 0.14
Normalized # of Colonies + SE (porcine PGCs [3]; 0.5 mM NAC, normalized to control, Table 2 dose response): 1.75 ± 0.13
Normalized # of Colonies + SE (porcine PGCs [3]; 1.0 mM NAC, normalized to control, Table 2 dose response): 2.07 ± 0.19
Normalized # of Colonies + SE (porcine PGCs [3]; 2.0 mM NAC, normalized to control, Table 2 dose response): 2.21 ± 0.04
Normalized # of Colonies + SE (porcine PGCs [3]; NAC (1.0 mM) 1-4 days (FH), Table 5 timing study): 2.86 ± 0.55
Normalized # of Colonies + SE (porcine PGCs [3]; NAC (1.0 mM) 5-8 days (LH), Table 5 timing study): 1.01 ± 0.035
Normalized # of Colonies + SE (porcine PGCs [3]; NAC (1.0 mM) all 8 days, Table 5 timing study): 2.64 ± 0.49
Normalized # of Colonies + SE (porcine PGCs [3]; Table 7 antioxidants: NAC 1.0 mM, BHA 0.1 mM, BPN 1.0 mM, CIM 2.0 mM, normalized to control): 1.93 ± 0.10
Effect of timing of exposure on number of colonies, in words (porcine PGCs [3]): Addition at later days has little effect
Concentration of maximal response (number of colonies) over the doses studied (porcine PGCs [3]; doses 0.25-2.0 mM studied): 2.0 mM

B1: α2-macroglobulin (protein, UniProt P01023 24-1474, looked up)
Alpha-2-macroglobulin: SVSGKPQYMVLVPSLLHTETTEKGCVLLSYLNETVTVSASLESVRGNRSLFTDLEAENDVLHCVAFAVPKSSSNEEVMFLTVQVKGPTQEFKKRTTVMVKNEDSLVFVQTDKSIYKPGQTVKFRVVSMDENFHPLNELIPLVYIQDPKGNRIAQWQSFQLEGGLKQFSFPLSSEPFQGSYKVVVQKKSGGRTEHPFTVEEFVLPKFEVQVTVPKIITILEEEMNVSVCGLYTYGKPVPGHVTVSICRKYSDASDCHGEDSQAFCEKFSGQLNSHGCFYQQVKTKVFQLKRKEYEMKLHTEAQIQEEGTVVELTGRQSSEITRTITKLSFVKVDSHFRQGIPFFGQVRLVDGKGVPIPNKVIFIRGNEANYYSNATTDEHGLVQFSINTTNVMGTSLTVRVNYKDRSPCYGYQWVSEEHEEAHHTAYLVFSPSKSFVHLEPMSHELPCGHTQTVQAHYILNGGTLLGLKKLSFYYLIMAKGGIVRTGTHGLLVKQEDMKGHFSISIPVKSDIAPVARLLIYAVLPTGDVIGDSAKYDVENCLANKVDLSFSPSQSLPASHAHLRVTAAPQSVCALRAVDQSVLLMKPDAELSASSVYNLLPEKDLTGFPGPLNDQDNEDCINRHNVYINGITYTPVSSTNEKDMYSFLEDMGLKAFTNSKIRKPKMCPQLQQYEMHGPEGLRVGFYESDVMGRGHARLVHVEEPHTETVRKYFPETWIWDLVVVNSAGVAEVGVTVPDTITEWKAGAFCLSEDAGLGISSTASLRAFQPFFVELTMPYSVIRGEAFTLKATVLNYLPKCIRVSVQLEASPAFLAVPVEKEQAPHCICANGRQTVSWAVTPKSLGNVNFTVSAEALESQELCGTEVPSVPEHGRKDTVIKPLLVEPEGLEKETTFNSLLCPSGGEVSEELSLKLPPNVVEESARASVSVLGDILGSAMQNTQNLLQMPYGCGEQNMVLFAPNIYVLDYLNETQQLTPEIKSKAIGYLNTGYQRQLNYKHYDGSYSTFGERYGRNQGNTWLTAFVLKTFAQARAYIFIDEAHITQALIWLSQRQKDNGCFRSSGSLLNNAIKGGVEDEVTLSAYITIALLEIPLTVTHPVVRNALFCLESAWKTAQEGDHGSHVYTKALLAYAFALAGNQDKRKEVLKSLNEEAVKKDNSVHWERPQKPKAPVGHFYEPQAPSAEVEMTSYVLLAYLTAQPAPTSEDLTSATNIVKWITKQQNAQGGFSSTQDTVVALHALSKYGAATFTRTGKAAQVTIQSSGTFSSKFQVDNNNRLLLQQVSLPELPGEYSMKVTGEGCVYLQTSLKYNILPEKEEFPFALGVQTLPQTCDEPKAHTSFQISLSVSYTGSRSASNMAIVDVKMVSGFIPLKPTVKMLERSNHVSRTEVSSNHVLIYLDKVSNQTLSLFFTVLQDVPVRDLKPAIVKVYDYYETDEFAIAEYNAPCSKDLGNA
Number of PGCs surviving in culture, in words (porcine PGCs [1]): increased the number of PGCs surviving in culture
Proportion of cells going into G0, in words [2]: did not affect the proportion of cells going into G0
G2/M (%) [2]: 10%
S (%) [2]: 5%
G0/G1 (%) [2]: 85%
Normalized # of Colonies + SE (porcine PGCs [3]; 0.35 pM MAC, normalized to control without inhibitor, Table 1 dose response): 1.43 ± 0.03
Normalized # of Colonies + SE (porcine PGCs [3]; 0.7 pM MAC, normalized to control, Table 1 dose response): 1.90 ± 0.08
Normalized # of Colonies + SE (porcine PGCs [3]; 1.40 pM MAC, normalized to control, Table 1 dose response): 1.50 ± 0.01
Normalized # of Colonies + SE (porcine PGCs [3]; 2.8 pM MAC, normalized to control, Table 1 dose response): 1.16 ± 0.06
Normalized # of Colonies + SE (porcine PGCs [3]; MAC (0.7 pM) all 8 days, Table 4 timing study): 1.64 ± 0.08
Number of first passage colonies, in words (porcine PGCs [3]; added to the culture media): increased the number of first passage colonies
Effect of timing of exposure on number of colonies, in words (porcine PGCs [3]): maximal effects result when MAC is present throughout the incubation period
Concentration of maximal response (number of colonies) (porcine PGCs [3]; doses 0.35-2.8 pM studied): 0.7 pM
Effect upon second passage, in words (porcine PGCs [3]; independent of previous culture in the presence of the molecule): protective effect
Effect on the number of PGCs, in words (porcine PGCs [3]; single concentrations of Tables 6 and 7): induced the most, and significantly, positive effect
